# Entries after “also recorded” stand apart in the source; their conditions may differ. Where two headings read alike, the source gives them in different places.
# How the values were obtained:
# [1] = test system: DosR-regulated genes hspX and tgs1; type: cell-based; details: for induction of hspX by the inducer / induction of tgs1 by the inducer: 2 h induction; for inhibition of hspX following DETA-NONOate treatment / inhibition of tgs1 following DETA-NONOate treatment / inhibition of hspX transcripts following vitamin C treatment / inhibition of tgs1 transcripts following vitamin C treatment: pretreated 24 h; for inhibition of hspX following DETA-NONOate treatment / inhibition of tgs1 following DETA-NONOate treatment: DETA-NONOate 2 h; for inhibition of hspX transcripts following vitamin C treatment / inhibition of tgs1 transcripts following vitamin C treatment: vitamin C 2 h
# DosS = DosS (Mycobacterium tuberculosis, UniProt P9WGK3); assay: DosS autophosphorylation assay; type: biochemical; details: 10-40 μM; HC103A 40 μM
# Experimental: Autophosphorylation assay. The DosS autophosphorylation assay was performed as previously described. DosS protein was treated with 10 μM, 20 μM or 40 μM of HC104A, or HC106A. DMSO and 40 μM HC103A were also included as […].
# [2] = test system: DosRST pathway, CDC1551 (hspX′::GFP) reporter strain; assay: microbe, parasite or virus in culture; type: cell-based
# Mtb = type: cell-based, Mycobacterium tuberculosis
# [3] = test system: DosR regulated genes dosR, hspX, tgs1; type: cell-based; details: for inhibition of hspX and tgs1 gene expression during hypoxia: 10 μM, real-time PCR; for downregulation of dosR / downregulation of hspX / downregulation of tgs1: 40 μM, 6 d, in vitro
# DosR regulon = type: cell-based; details: WT CDC1551, 40 μM; for genes from dosR regulon inhibited: >2-fold, q<0.05
# [4] = test system: DosR-controlled genes hspX and tgs1; type: cell-based; details: 40 μM, 48 h, infected macrophages
# TAG accumulation in Mtb = type: cell-based; details: 40 μM, 6 d, vs DMSO treated WT
# Mtb CDC1551 = type: cell-based; details: for survival relative to DMSO control during NRP: 40 μM, 10 days
# DosR = DosR (Mycobacterium tuberculosis, UniProt P9WMF9); assay: Electrophoretic mobility shift assay (EMSA), DosR binding of hspX promoter DNA; details: for impact on DosR binding of DNA (words): 1-80 μM
# [5] = test system: DosR-regulated genes hspX and tgs1; type: cell-based; details: 20 μM, 6 d
# [6] = test system: DosRST signaling, CDC1551 (hspX′::GFP); assay: microbe, parasite or virus in culture; type: cell-based
# [7] = not given; remark: listed apart in the source
# [8] = Mycobacterium tuberculosis, 144 h, CDC1551 (hspX′::GFP), 6 d, read-out: EC50 of DosRST-dependent GFP fluorescence inhibition (FI)
# [9] = Mycobacterium tuberculosis, Table 3, HC104 series, whole cell assay, read-out: EC50
# Sequence of DosS (P9WGK3 whole entry): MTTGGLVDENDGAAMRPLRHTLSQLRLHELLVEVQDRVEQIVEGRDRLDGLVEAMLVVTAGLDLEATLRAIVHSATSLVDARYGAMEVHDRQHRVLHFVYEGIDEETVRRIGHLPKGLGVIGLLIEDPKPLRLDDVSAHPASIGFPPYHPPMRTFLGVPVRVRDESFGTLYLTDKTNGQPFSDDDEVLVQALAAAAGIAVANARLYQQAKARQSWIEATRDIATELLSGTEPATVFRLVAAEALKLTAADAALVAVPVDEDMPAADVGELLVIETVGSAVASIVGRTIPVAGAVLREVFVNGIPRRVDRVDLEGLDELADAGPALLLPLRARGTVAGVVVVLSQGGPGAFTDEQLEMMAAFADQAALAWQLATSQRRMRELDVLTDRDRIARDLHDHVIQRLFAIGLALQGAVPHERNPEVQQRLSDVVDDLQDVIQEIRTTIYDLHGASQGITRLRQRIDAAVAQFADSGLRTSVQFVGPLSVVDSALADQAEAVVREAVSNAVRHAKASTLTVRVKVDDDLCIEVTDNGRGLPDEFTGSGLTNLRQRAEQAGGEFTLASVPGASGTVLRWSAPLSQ
# Sequence of DosR (P9WMF9 whole entry, looked up): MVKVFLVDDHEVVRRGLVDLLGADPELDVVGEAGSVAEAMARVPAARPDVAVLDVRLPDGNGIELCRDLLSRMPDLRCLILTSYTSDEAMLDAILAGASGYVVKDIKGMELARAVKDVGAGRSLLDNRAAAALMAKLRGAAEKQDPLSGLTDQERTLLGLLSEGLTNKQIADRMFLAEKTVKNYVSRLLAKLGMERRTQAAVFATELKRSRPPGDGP
compound,measurement,setting,value
"NCCN(CCN)/[N+]([O-])=N/O [DETA-NONOate, reference compound]",induction of hspX by the inducer,[1],3024 fold
same,induction of tgs1 by the inducer,[1],113 fold
"O=C(Nc1cccc(O)c1)c1cccc(NC(=O)c2cccs2)c1 [HC103A, reference compound]",effect on DosS autophosphorylation,DosS,strongly inhibited
CN(C)CCCN1C(=O)c2cccc3c(Br)ccc(c23)C1=O [HC104A],EC50,[2]; [8],9.8 µM
same,EC50,[2]; [9],9.8 µM
same,impact on Mtb growth,Mtb,minimal impact
same,inhibition of hspX and tgs1 gene expression during hypoxia,[3],strongly inhibited
same,downregulation of dosR,[3],6 fold
same,downregulation of hspX,[3],570 fold
same,downregulation of tgs1,[3],13 fold
same,additional genes repressed that were not repressed in CDC1551(ΔdosR),DosR regulon,119 genes
same,genes from dosR regulon inhibited,DosR regulon,26 genes
same,inhibition of hspX induction,[4],185 fold
same,inhibition of tgs1 induction,[4],10 fold
same,inhibition of hspX following DETA-NONOate treatment,[1],302 fold
same,inhibition of tgs1 following DETA-NONOate treatment,[1],6.6 fold
same,inhibition of hspX transcripts following vitamin C treatment,[1],3.4 fold
same,inhibition of tgs1 transcripts following vitamin C treatment,[1],no effect
same,reduction of TAG accumulation,TAG accumulation in Mtb,~50%
same,survival relative to DMSO control during NRP,Mtb CDC1551,no impact on Mtb survival
same,effect on DosS autophosphorylation,DosS,no inhibitory activity; also recorded: inhibitory activity was not observed; also recorded: no effect
same,concentration at which inhibition of DosR DNA binding begins,"DosR; 2 μM DosR, doses 1-80 μM",10 µM
same,% free DNA,"DosR; 20 μM, 2 μM DosR",72%
same,% free DNA,"DosR; 30 μM, 2 μM DosR",89%
same,% free DNA,"DosR; 40 μM, 2 μM DosR",92%
same,inhibition of DosR DNA binding compared to DMSO,"DosR; 40 μM, 2 μM DosR",~22 fold
same,% free DNA,"DosR; 60 μM, 2 μM DosR",96%
same,% free DNA,"DosR; 80 μM, 2 μM DosR (normalised as 100%)",100%
same,IC50,"DosR; preliminary, data not shown, read-out: IC50 for inhibition of DosR-DNA binding",~10 µM
CN(C)CCCN1C(=O)c2cccc3cccc(c23)C1=O [HC104B],activity in the whole cell Mtb reporter assay,[2],complete loss of activity
same,EC50,[2]; [9],> 200 µM
CN1C(=O)c2cccc3c(Br)ccc(c23)C1=O [HC104G],fold less active than HC104A,[2],~10 fold
same,EC50,[2]; [9],43.8 µM
same,fold less active than HC104A,[2]; whole cell assay,~5 fold
O=C(Nc1ccno1)Nc1ccc(Cl)cc1Cl [HC106A],impact on Mtb growth,Mtb,minimal impact
same,inhibition of hspX and tgs1 gene expression during hypoxia,[3],repressed to undetectable levels
same,inhibition of hspX and tgs1 gene expression during hypoxia,[3]; listed as H106A,strongly inhibited
same,downregulation of dosR,[3],49 fold
same,downregulation of hspX,[3],1360 fold
same,downregulation of tgs1,[3],1424 fold
same,additional genes repressed that were not repressed in CDC1551(ΔdosR),DosR regulon,35 genes
same,genes from dosR regulon inhibited,DosR regulon,53 genes
same,inhibition of hspX induction,[4],6 fold
same,inhibition of tgs1 induction,[4],4 fold
same,inhibition of hspX following DETA-NONOate treatment,[1],362 fold
same,inhibition of tgs1 following DETA-NONOate treatment,[1],151 fold
same,inhibition of hspX transcripts following vitamin C treatment,[1],78 fold
same,inhibition of tgs1 transcripts following vitamin C treatment,[1],14 fold
same,reduction of TAG accumulation,TAG accumulation in Mtb,~50%
same,survival relative to DMSO control during NRP,Mtb CDC1551,50%
same,reduction of survival as compared to DMSO control,Mtb CDC1551; hypoxic shift-down model,50%
same,effect on DosS autophosphorylation,DosS,no inhibitory activity; also recorded: no effect
same,"inhibition of hspX, DosS overexpression",[5]; pVV16-DosS,23 fold
same,"inhibition of tgs1, DosS overexpression",[5]; pVV16-DosS,16.5 fold
same,"downregulation of hspX, vector control",[5]; pVV16 empty vector,2331 fold
same,"downregulation of tgs1, vector control",[5]; pVV16 empty vector,3470 fold
same,effect on DosRST signaling alone,[6]; 200 nM HC106A alone,no effect on its own
same,solubility,physchem,110 µM
O=C(Nc1ccon1)Nc1ccc(Cl)cc1Cl [HC106C],activity in the whole cell Mtb reporter assay,[2],no activity
"O=C(Nc1ccc(Cl)cc1)Nc1ccno1 [HC106F, 1-(4-chlorophenyl)-3-(1,2-oxazol-5-yl)urea]",fold enhanced activity relative to HC106A,[2],~10 fold
same,fold enhanced activity relative to HC106A,[2]; whole cell assay,~2 fold
same,melting point,,183 °C
same,Microsomes (% remaining @ 30 minutes),"[7]; microsomes, 0.5 h",115% remaining
same,solubility,physchem,> 200 µM
"O=C(Nc1ccccc1)Nc1ccno1 [MSU-33189, 3-(1,2-oxazol-5-yl)-1-phenylurea]",EC50,[2]; [8],0.63 µM
"O=C(Nc1ccno1)Nc1ccno1 [MSU-39444, 1,3-bis(1,2-oxazol-5-yl)urea]",EC50,"[2]; CDC1551 (hspX′::GFP), 6 d, read-out: EC50 of DosRST-dependent GFP fluorescence inhibition (FI)",~2 µM
same,EC50,[2]; [8],1.7 µM
"O=C(Nc1cccc(Cl)c1)Nc1ccno1 [MSU-39445, 1-(3-chlorophenyl)-3-(1,2-oxazol-5-yl)urea]",EC50,[2]; [8],0.75 µM
same,melting point,,159 °C (dec.)
same,solubility,physchem,> 100 µM
"COc1ccc(NC(=O)Nc2ccno2)cc1 [MSU-39447, 1-(4-methoxyphenyl)-3-(1,2-oxazol-5-yl)urea]",EC50,[2]; [8],0.61 µM
same,melting point,,166 to 167 °C
same,solubility,physchem,> 100 µM
"O=C(Nc1ccc(Cl)nc1)Nc1ccno1 [MSU-39448, 1-(6-chloropyridin-3-yl)-3-(1,2-oxazol-5-yl)urea]",melting point,,158 to 159 °C
"O=C(Nc1ccc(Cl)cn1)Nc1ccno1 [MSU-39450, 1-(5-chloropyridin-2-yl)-3-(1,2-oxazol-5-yl)urea]",melting point,,122 to 123 °C
"O=C(Nc1ccc(Cl)c(Cl)c1)Nc1ccno1 [MSU-39452, 1-(3,4-dichlorophenyl)-3-(1,2-oxazol-5-yl)urea]",melting point,,164 °C
"CC(C)(C)c1ccc(NC(=O)Nc2ccno2)cc1 [MSU-41442, 1-(4-tert-butylphenyl)-3-(1,2-oxazol-5-yl)urea]",melting point,,163 °C
same,solubility,physchem,> 100 µM
"O=C(Nc1ccc(-c2ccccc2)cc1)Nc1ccno1 [MSU-41443, 1-{[1,1′-biphenyl]-4-yl}-3-(1,2-oxazol-5-yl)urea]",melting point,,193 °C
same,solubility,physchem,14 µM
"O=C(NCc1ccccc1)Nc1ccno1 [MSU-41462, 1-benzyl-3-(1,2-oxazol-5-yl)urea]",melting point,,128 to 130 °C
"O=C(Nc1ccc(C(F)(F)F)cc1)Nc1ccno1 [MSU-41463, 3-(1,2-oxazol-5-yl)-1-[4-(trifluoromethyl)phenyl]urea]",melting point,,178 °C
same,Microsomes (% remaining @ 30 minutes),[7]; 30 minutes,84 % remaining
"O=C(Nc1ccc(Br)cc1)Nc1ccno1 [MSU-41464, 1-(4-bromophenyl)-3-(1,2-oxazol-5-yl)urea]",melting point,,183 to 184 °C
same,Microsomes (% remaining @ 30 minutes),[7]; 30 minutes,109% remaining
"COC(=O)c1ccc(NC(=O)Nc2ccno2)cc1 [MSU-41465, methyl 4-{[(1,2-oxazol-5-yl)carbamoyl]amino}benzoate]",melting point,,194 °C
same,Microsomes (% remaining @ 30 minutes),"[7]; microsomes, 0.5 h",73 % remaining
"CC(C)CNC(=O)Nc1ccno1 [MSU-41542, 3-(2-methylpropyl)-1-(1,2-oxazol-5-yl)urea]",melting point,,187 °C
"O=C(Nc1ccc(COc2ccccc2)cc1)Nc1ccno1 [MSU-41545, 3-(1,2-oxazol-5-yl)-1-[4-(phenoxymethyl)phenyl]urea]",melting point,,164 °C
"O=C(Nc1ccno1)NC1CCCC1 [MSU-41546, 1-cyclopentyl-3-(1,2-oxazol-5-yl)urea]",melting point,,182 °C
"O=C(Nc1ccno1)NC1CCCCC1 [MSU-42002, 1-cyclohexyl-3-(1,2-oxazol-5-yl)urea]",melting point,,180 °C
"O=C(Nc1cccc(Br)c1)Nc1ccno1 [MSU-42003, 1-(3-bromophenyl)-3-(1,2-oxazol-5-yl)urea]",melting point,,157 °C
"O=C(NCCc1ccccc1)Nc1ccno1 [MSU-42004, 3-(1,2-oxazol-5-yl)-1-(2-phenylethyl)urea]",melting point,,165 °C
"C[C@@H]1CC[C@H]2[C@@H](C)C(=O)O[C@@H]3O[C@@]4(C)CC[C@@H]1[C@]32OO4 [artemisinin, reference compound]",maximum inhibition of hspX,[3]; maximum inhibition,51 fold
same,maximum inhibition of tgs1,[3]; maximum inhibition,166 fold
same,inhibition at 0.5 µM,"[6]; Mycobacterium tuberculosis, 500 nM artemisinin alone",40%
"O=C(O)CCCN1C(=O)c2cccc3cccc(c23)C1=O [virstatin, reference compound]",activity in the whole cell Mtb reporter assay,[2],did not have any impact on DosRST signaling; also recorded: nor did virstatin inhibit the DosRST pathway; also recorded: not effect
same,impact on DosR binding of DNA (words),DosR; 2 μM DosR,no impact on DosR binding of DNA
same,impact on DosR binding of DNA (words),"DosR; 2 μM DosR, listed as Virstatin",did not impact DosR binding of promoter DNA
"O=C1O[C@H]([C@@H](O)CO)C(O)=C1O [vitamin C, reference compound]",induction of hspX by the inducer,[1],2162 fold
same,induction of tgs1 by the inducer,[1],58 fold

# Reference: patent US11617740B2, “Chemical inhibitors of Mycobacterium tuberculosis DosRST signaling and persistence” (priority 2017, dated 2023)
